# Results taken from patent publication US20110224232A1 (Board of Regents, The University of Texas System, priority 2008, published 2011).
# Read-outs that look alike come from different tables or passages of the source.
# Legend:
# Aspergillus fumigatus [1] = experiment: Pulmonary fungal burden by colony forming units in infected mice; type: in vivo
# Experimental: (§1) Mice were monitored for an additional 5 days following discontinuation of treatment. Animals that appeared moribund prior to the end of the study were euthanized by halothane and death was recorded as occurring the next day. 12 mice were randomly selected from each group and euthanized on Day +8 for fungal burden analysis while any remaining mice were euthanized on Day +12. 2 additional mice were randomly selected from each group and euthanized on Day +8 and Day +12 for histological analysis
# Lungs were homogenized in sterile saline (total volume 2 mL) supplemented with gentamicin and chloramphenicol using a tissue homogenizer (Polytron Dispensing and Mixing Technology PT 2100, Kinematica, Cincinnati, Ohio). Serial dilutions were prepared in sterile saline and plated in duplicate onto potato dextrose agar. Following 24 hours of incubation at 37° C., colonies were enumerated and colony forming units (CFU) per gram of lung tissue for each animal were calculated.
# (§2) Statistical analyses were conducted as follows. Survival was plotted by Kaplan-Meier analysis, and differences in median survival and percent survival between prophylaxis groups were analyzed by the log-rank test and chi-square test, respectively, using Prism version 4 software (GraphPad, San Diego, Calif.). Differences in fungal burden endpoints (CFU/g and CE) were assessed for significance by analysis of variance with Tukey's post-test for multiple comparisons. A p-value of ≦0.05 was considered statistically significant for all comparisons.
# [2] = Aerodynamic droplet size characterization, AERONEB Pro nebulizer and eight-stage cascade impactor; type: physicochemical
# Experimental: The performance of an inhalable formulation of the invention was evaluated using an AERONEB® Pro nebulizer and a cascade impactor. Aerodynamic droplet size distributions were determined using an adapted USP Apparatus 1 nonviable eight-stage cascade impactor (Thermo-Anderson, Smyrna, Ga.) with a spacer.
# Aerodynamic droplet size distributions were determined using a USP Apparatus 1 nonviable eight-stage cascade impactor (Thermo-Anderson, Symrna, Ga.) to quantify total emitted dose (TED) from the nebulizer output, mass median aerodynamic diameter (MMAD), geometric standard deviation (GSD), and percentage droplets with an aerodynamic diameter less than 4.7 micrometer (defined as the percentage fine particle fraction or FPF). The aerodynamic droplet size distribution was conducted as adapted from the guidelines described in USP 30 Section 601: Aerosols, Nasal Sprays, Metered-dose Inhalers, and Dry Powder Inhalers.
# [3] = Single-dose pharmacokinetics of inhaled voriconazole in mice; settings: for AUC(0-t): AUC (0-6 hr) Plasma
# Experimental: Initially, a single dose PK profile was performed on large mice with a 5 L/min flow rate through the dosing apparatus (see Table 2).
# A subsequent PK study was then performed on smaller mice due to the mouse size constraints of the murine model of infection at a lower air flow rate of 1 L/min. Male ICR mice were exposed to a 20 minute nebulization period. […] Plasma was separated from whole blood collected to determine drug concentration (adapted from Pascual et al., Antimicrobial Agents and Chemotherapy, 2007, 51:1). Lungs were harvested and homogenized to determine drug concentration (adapted from Lutsar et al., Clinical Infectious Disease, 2003, 37:5).
# Mice were dosed using a nose-only dosing apparatus as illustrated in FIGS. 1A-1B. VFEND® IV was reconstituted, diluted, and aerosolized as described previously. The airflow through the dosing apparatus was varied from 1-5 L/min (see Table 2). Sufficient solution was added to the medication reservoir to have residual volume remaining after 20 minutes. The nose-only dosing apparatus and nebulizer were disassembled between each dose, cleaned, dried, and reassembled.
# Pharmacokinetic (PK) profiles were determined for high flow rate and low flow rate mice groups following a single 20 minute nebulization. Mice were ordered with masses of 32 g (high flow rate mice) and 20 g (low flow rate mice). Two or more mice were sacrificed by carbon dioxide narcosis at each time point (high flow rate mice—5, 10, 20, 30, 60, 90, 150, 240, 360, 720, and 1440 minutes or low flow rate mice—10, 30, 60, 240, 360, and 480 minutes). Whole blood was collected by cardiac puncture, stored in heparinized vials, and centrifuged to obtain plasma. Surgery was also performed on each mouse to extract the whole lungs which were then homogenized in 1 mL of normal saline. […] The trapezoidal rule was used to estimate the area under the curve (AUC) for each concentration versus time profile.
# Briefly, sterile water for injection (SWFI) was added to lung tissue and homogenized using a rotor and stator high shear homogenizer. Proteins and other cellular components were precipitated following addition of 0.2M borate buffer (pH 9.0), ethyl acetate, and centrifugation. Supernatant was then extracted three times and liquid was evaporated under a gentle stream of nitrogen.
# For lung tissue, SWFI was added to lung tissue and homogenized using a rotor and stator high shear homogenizer. […] Supernatant was then extracted three times and liquid was evaporated under a gentle stream of nitrogen.
# Each sample was analyzed using a Waters Breeze liquid chromatograph (Waters Corporation, Milford Mass.) equipped with a heated (35° C.) JUPITER® C18 (150 mm×4.6 mm, 5 micrometer) with a Universal security guard (Widepore C18) guard column (Phenomenex, Torrance, Calif.). The sample volume was 50 microliter with a UV detection wavelength of 254 nm. The mobile phase consisted of a 50:50 mixture of 0.01 M sodium acetate buffer and methanol at 1 mL/min.
# Male ICR mice were dosed using a nose-only dosing apparatus as illustrated in FIGS. 1A and 1B. The airflow through the dosing apparatus was varied from 1-5 L/min. VFEND® IV was reconstituted, diluted, and sufficient solution was added to the medication reservoir to have residual volume remaining after 20 minutes. The nose-only dosing apparatus and nebulizer were disassembled between each dose, cleaned, dried, and reassembled.
# Single-dose pharmacokinetic profiles were determined in two groups of mice: a high flow-rate group (5 L/min air flow, 32 g average mass) and low flow-rate group (1 L/min, 20 g average mass). Two or more mice were sacrificed by carbon dioxide narcosis at each time point (high flow-rate: 5, 10, 20, 30, 60, 90, 150, 240, 360, 720, and 1440 minutes or low flow-rate mice: 10, 30, 60, 240, 360, and 480 minutes). Whole blood was collected by cardiac puncture into heparinized vials and centrifuged to obtain plasma.
# A. fumigatus = settings: cited from earlier work
# [4] = Aqueous and phase solubility of voriconazole with SAE-CD; type: physicochemical
# [5] = single dose of IV or oral voriconazole; cited from earlier work
# Aspergillus fumigatus [6] = experiment: Pulmonary fungal burden by real-time quantitative PCR (conidial equivalents) in infected mice; type: in vivo; settings: Day + 8 per table footnote
# Experimental: as §1
# Pulmonary fungal burden was also quantified by real-time quantitative polymerase chain reaction (qPCR) using previously described methods. Briefly, DNA was extracted from […] of lung homogenate with the use of a commercially available kit (DNeasy Tissue Kit, Qiagen, Valencia, Calif.) according to the manufacturer's instructions. DNA samples were analyzed in duplicate with the use of the ABI PRISM 7300 sequence-detection system (Applied Biosystems, Foster City, Calif.) with primers and dual-labeled fluorescent hybridization probes specific for the A. fumigatus 1,3-β-glucan synthase (FKS) gene (GenBank accession number U79728). The threshold cycle (Ct) of each sample was interpolated from a six-point standard curve generated by spiking naive mouse lungs with known amounts of conidia (102 to 107). An internal standard was amplified in separate reactions to correct for differences in DNA recovery. The resulting data was expressed as conidial equivalents (CE).
# as §2
# [7] = tested on: Aspergillus fumigatus clinical isolate 293 (AF 293); experiment: Survival of A. fumigatus-infected immunosuppressed mice (Kaplan-Meier); type: in vivo; settings: for Percent Survival / Median Survival: A. fumigatus-infected female ICR mice, VOR inhalation BID 30-40 mg/kg, AmB intraperitoneal QD 1 mg/kg; for Percent Survival: to Day +12
# From the text: Conidia were harvested from Aspergillus fumigatus clinical isolate 293 (AF 293) cultures grown on potato dextrose agar (Hardy Diagnostics, Santa Maria, Calif.) by washing and scraping agar surfaces with 0.1% Tween 80 in sterile physiological saline and filtering through sterile glass wool. Conidia were re-suspended to achieve a final inoculum of ˜1×10^9 conidia/mL, as confirmed by hemocytometer counts and serial plating.
# Mice were rendered immunosuppressed by intraperitoneal cyclophosphamide (250 mg/kg) and subcutaneous cortisone acetate (250 mg/kg) two days prior to inoculation (Day −2). Both cyclophosphamide (200 mg/kg intraperitoneal) and cortisone acetate (250 mg/kg subcutaneously) were re-administered on Day +3 following inoculation. Mice also received prophylactic antibiotic therapy of ceftazidime 50 mg/kg administered sub-cutaneously on Day −2 through Day +7.
# To simulate pulmonary pathogenesis, mice were placed inside an acrylic chamber, and A. fumigatus conidia were introduced by aerosolizing the conidial suspension with a small particle nebulizer (Hudson Micro Mist, Hudson RCI, Temecula, Calif.) driven by compressed air. A standard exposure time of 1 hour was used to allow for complete aerosolization of the conidial suspension. Starting inocula were assessed by colony forming unit (CFU) enumeration from mice one hour post-inoculation.
# The inhaled control group received 20 minute nebulizations of 100 mg/mL CAPTISOL® solutions BID beginning on Day −2 and continuing through Day +7. The intraperitoneal AmB group received 1 mg/kg Amphotericin B deoxycholate (Apothecon, Princeton, N.J.) by intraperitoneal injection (IP) once daily (QD) on Day +1 and continuing through Day +7 (FIG. 2).
# Statistical analyses were conducted as follows. Survival was plotted by Kaplan-Meier analysis, and differences in median survival and percent survival between prophylaxis groups were analyzed by the log-rank test and chi-square test, respectively, using Prism version 4 software (GraphPad, San Diego, Calif.). […] A p-value of ≦0.05 was considered statistically significant for all comparisons.
# Aspergillus fumigatus [8] = settings: cited from earlier work
# [9] = Small Mice (low flow rate, 1 L/min), single dose
smiles,measurement,setting,value
"CC(c1ncncc1F)C(O)(Cn1cncn1)c1ccc(F)cc1F (stereo not drawn) [Voriconazole, 2-(2,4-difluorophenyl)-3-(5-fluoropyrimidin-4-yl)-1-(1H-1,2,4-triazol-1-yl)butan-2-ol]","A - Day 8 Fungal Burden Determined by CFU, Mean",Aspergillus fumigatus [1]; Day +8,4.26 log10 CFU
same,"A - Day 8 Fungal Burden Determined by CFU, Median",Aspergillus fumigatus [1]; Day +8,4.21 log10 CFU
same,"A - Day 8 Fungal Burden Determined by CFU, Range",Aspergillus fumigatus [1]; Day +8,(3.62-4.68) log10 CFU
same,"B - Fungal Burden Determined by CFU for All Mice, Mean","Aspergillus fumigatus [1]; all samples, day 8 and day 12",3.88 log10 CFU
same,"B - Fungal Burden Determined by CFU for All Mice, Median","Aspergillus fumigatus [1]; all samples, day 8 and day 12",4.14 log10 CFU
same,"B - Fungal Burden Determined by CFU for All Mice, Range","Aspergillus fumigatus [1]; all samples, day 8 and day 12",(2.60-4.68) log10 CFU
same,reduction in fungal burden between the groups (CFUs per gram of lung mass and CEs by qPCR),Aspergillus fumigatus [1]; in vivo,no significant reduction in fungal burden
same,FPF (fine particle fraction),"[2]; Average Results of Test 1 and 2, 6.25 mg/mL",> 70%
same,"estimated TED, based on measured residual volumes",[2]; all dosing during the survival study,25.44 mg
same,Cmax Lung,"[3]; Large Mice (high flow rate, 5 L/min), single dose",1.62 microgram/g
same,AUC (0-6 hr) Lung,[3]; [9],2408.0 microgram × min/g
same,Cmax Lung,[3]; [9],11.02 microgram/g
same,Kp,"[3]; male, ICR, mouse, in vivo, inhaled or intranasal",1.4 to 1.6
same,Tmax,"[3]; male, ICR, mouse, lung, inhaled or intranasal, 6.09 microgram/mL, Tmax Lung, Small Mice (low flow rate, 1 L/min), single dose, 20 minute nebulization",≤ 30 min
same,Tmax,"[3]; male, ICR, mouse, lung, inhaled or intranasal, Lung Tmax, summary table",10 to 30 min
same,Tmax,"[3]; male, ICR, mouse, lung, inhaled or intranasal, Tmax Lung, Large Mice (high flow rate, 5 L/min), single dose, 20 minute nebulization",10 min
same,Tmax,"[3]; male, ICR, mouse, lung, inhaled or intranasal, Tmax Lung, Small Mice (low flow rate, 1 L/min), single dose, 20 minute nebulization",30 min
same,Tmax,"[3]; male, ICR, mouse, plasma (heading says blood), inhaled or intranasal, Blood Tmax, summary table",20 to 30 min
same,Cmax,"[3]; male, ICR, mouse, plasma, inhaled or intranasal, 6.09 microgram/mL, Cmax Plasma, Small Mice (low flow rate, 1 L/min), single dose",7090 ng/mL
same,Tmax,"[3]; male, ICR, mouse, plasma, inhaled or intranasal, 6.09 microgram/mL, Tmax Plasma, Small Mice (low flow rate, 1 L/min), single dose, 20 minute nebulization",≤ 30 min
same,AUC(0-t),"[3]; male, ICR, mouse, plasma, inhaled or intranasal, Large Mice (high flow rate, 5 L/min), single dose",2270 ng·h/mL
same,AUC(0-t),"[3]; male, ICR, mouse, plasma, inhaled or intranasal, Small Mice (low flow rate, 1 L/min), single dose",25800 ng·h/mL
same,Cmax,"[3]; male, ICR, mouse, plasma, inhaled or intranasal, Blood Cmax, single-dose",7090 ng/mL
same,Cmax,"[3]; male, ICR, mouse, plasma, inhaled or intranasal, Cmax Plasma, Large Mice (high flow rate, 5 L/min), single dose",1180 ng/mL
same,Tmax,"[3]; male, ICR, mouse, plasma, inhaled or intranasal, Tmax Plasma, Large Mice (high flow rate, 5 L/min), single dose, 20 minute nebulization",20 min
same,Tmax,"[3]; male, ICR, mouse, plasma, inhaled or intranasal, Tmax Plasma, Small Mice (low flow rate, 1 L/min), single dose, 20 minute nebulization",30 min
same,Lung Cmax,"[3]; single-dose, mouse",11020 ng/mL
same,increase in total drug exposure as measured by AUC0-6 for lung tissue and plasma,[3]; slower flow rate (small mice) versus high flow rate (large mice),> 10 fold
same,fungicidal activity at a low concentration,A. fumigatus,0.5 microgram/mL
same,EC50 value (concentration resulting in 50% inhibition of growth compared to control),A. fumigatus; non-linear regression analysis,0.18 micrograms/mL
same,solubility,"[4]; water with SAE-CD, aqueous with cosolvent or surfactant or cyclodextrin, thermodynamic from solid, Voriconazole (mg/ml) at saturated solubility, SAE-CD 43.26 mg/ml (r4)",3.34 mg/mL
same,solubility,"[4]; water with SAE-CD, aqueous with cosolvent or surfactant or cyclodextrin, thermodynamic from solid, Voriconazole (mg/ml) at saturated solubility, SAE-CD 43.26 mg/ml as printed (r8)",35.1 mg/mL
same,solubility,"[4]; water with SAE-CD, aqueous with cosolvent or surfactant or cyclodextrin, thermodynamic from solid, Voriconazole (mg/ml) at saturated solubility, SAE-CD 108.15 mg/ml",8.39 mg/mL
same,solubility,"[4]; water with SAE-CD, aqueous with cosolvent or surfactant or cyclodextrin, thermodynamic from solid, Voriconazole (mg/ml) at saturated solubility, SAE-CD 216.3 mg/ml",17.3 mg/mL
same,solubility,"[4]; water with SAE-CD, aqueous with cosolvent or surfactant or cyclodextrin, thermodynamic from solid, Voriconazole (mg/ml) at saturated solubility, SAE-CD 324.45 mg/ml",26.5 mg/mL
same,solubility,"[4]; water, room temperature, absence of water soluble cyclodextrin derivative, read-out: aqueous solubility",0.68 to 0.69 mg/mL
same,typical Tmax in human plasma,[5],50 to 66 min
same,"C - Conidial Equivalents Determined by qPCR, Mean",Aspergillus fumigatus [6],4.56 log10 conidial equivalents
same,"C - Conidial Equivalents Determined by qPCR, Median",Aspergillus fumigatus [6],4.59 log10 conidial equivalents
same,"C - Conidial Equivalents Determined by qPCR, Range",Aspergillus fumigatus [6],(3.77-5.32) log10 conidial equivalents
same,"D - Conidial Equivalents per Gram of Lung Tissue Determined by Qpcr, Mean",Aspergillus fumigatus [6]; normalized for wet lung weight,5.19 log10 conidial equivalents per
same,"D - Conidial Equivalents per Gram of Lung Tissue Determined by Qpcr, Median",Aspergillus fumigatus [6]; normalized for wet lung weight,5.24 log10 conidial equivalents per
same,"D - Conidial Equivalents per Gram of Lung Tissue Determined by Qpcr, Range",Aspergillus fumigatus [6]; normalized for wet lung weight,(4.45-5.98) log10 conidial equivalents per
same,Percent Survival,[7],66.7%
same,Percent Survival,[7]; listed as voriconazole,Approximately 67%
same,Median Survival,[7],>12 days
same,Median Survival,[7]; listed as voriconazole,over 12 days
same,difference in survival versus negative control (inhaled Captisol) and positive control (intraperitoneal Amphotericin B),[7]; Kaplan-Meier survival curves,statistically significant (p<0.05) difference in survival
same,MIC50,Aspergillus fumigatus [8]; A. fumigatus clinical test isolates,0.25 µg/mL
same,minimum inhibitory concentrations for 90% of isolates (MIC90),Aspergillus fumigatus [8]; Aspergillus fumigatus,0.5-1 microgram/mL
same,MIC90,Aspergillus fumigatus [8]; red line in FIG. 10,0.52 µg/mL
